Experimental data reported in paper PMC7442609 (ACS chemical biology, 2020).
Where two headings read alike, the source gives them in different places. Peptide text beside a SMILES is read from it. * marks the point of attachment. Cbz = O=C(OCc1ccccc1)*

Tests used:
RAW-Difluo mLC3 cells = assay: RAW-Difluo mLC3 autophagy reporter assay; assay type: cell-based, murine; settings: 16 hours
PINK1 = assay type: cell-based, murine; settings: 5 μM, 16 hr, western blot
Parkin = assay type: cell-based, murine; settings: 5 μM, 16 hr, western blot
FoxM1 = assay type: cell-based, murine; settings: 5 μM, 16 hours, western blot
Mtb H37Rv = assay: Resazurin microtiter assay; assay type: cell-based, Mycobacterium tuberculosis
proteasomes = molecular target: T1, proteasomes (Mus musculus, UniProt O55234+P70195+Q60692); assay: Ub-R-GFP reporter assay of proteasomal activity in cells; assay type: cell-based, murine
T1 sequence (O55234 60-264): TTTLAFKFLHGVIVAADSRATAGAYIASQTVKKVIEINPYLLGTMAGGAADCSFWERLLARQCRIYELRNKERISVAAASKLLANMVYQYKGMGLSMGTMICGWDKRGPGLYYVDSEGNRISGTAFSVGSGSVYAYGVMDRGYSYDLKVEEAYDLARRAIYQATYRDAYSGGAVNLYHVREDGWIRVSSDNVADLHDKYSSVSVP
T1 sequence (Q60692 1-238): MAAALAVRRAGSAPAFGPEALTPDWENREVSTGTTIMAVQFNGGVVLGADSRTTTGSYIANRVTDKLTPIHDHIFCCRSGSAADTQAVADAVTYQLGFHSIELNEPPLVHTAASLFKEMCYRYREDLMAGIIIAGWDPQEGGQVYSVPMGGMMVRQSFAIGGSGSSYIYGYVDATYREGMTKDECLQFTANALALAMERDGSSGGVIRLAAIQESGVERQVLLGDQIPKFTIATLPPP
T1 sequence (P70195 44-277): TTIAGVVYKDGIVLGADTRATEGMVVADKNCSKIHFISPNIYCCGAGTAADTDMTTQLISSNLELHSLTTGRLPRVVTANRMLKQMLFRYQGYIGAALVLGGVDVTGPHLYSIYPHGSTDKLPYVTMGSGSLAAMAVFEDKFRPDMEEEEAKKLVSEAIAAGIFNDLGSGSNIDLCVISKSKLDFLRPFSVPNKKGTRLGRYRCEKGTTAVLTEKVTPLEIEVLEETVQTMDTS

[1] = system: luxBCADE-expressing H37Rv Mtb in THP-1 cells; assay type: cell-based, Mycobacterium tuberculosis; settings: for effect of WRT on anti-Mtb activity in macrophages: THP-1 cells, + WRT (15 μM), 7 days
20S proteasome = 20S proteasome (Homo sapiens, UniProt P28072+P28074+Q99436); assay: Proteasome-Glo assay on purified 20S proteasome; assay type: biochemical; settings: 1 hr; for IC50 caspase-like activity / IC50 chymotrypsin-like activity / IC50 trypsin-like activity: purified 20S proteasome
[2] = system: RFP-LC3-THP-1 cells infected with Mtb; assay type: cell-based, human; settings: 16 hr at 10 μM, TSR 2.5 μM
THP-1 cells = assay type: cell-based, human; settings: uninfected THP-1 cells
EIF-2α = assay type: cell-based, murine; settings: 5 μM, 16 hours, western blot

Row | Molecule | induction of autophagy (in words) (RAW-Difluo mLC3 cells) | FoxM1 protein levels (FoxM1) | inhibition of intracellular Mtb growth [1] | effect of WRT on anti-Mtb activity in macrophages [1] | autophagosomes (RFP-LC3 puncta) per Mtb infected cell [2] | other results
1 | C=C(NC(=O)C(=C)NC(=O)c1ccc2c(n1)-c1coc(n1)C(=C)NC(=O)C(=C)NC(=O)c1nc(oc1C)C(=C)NC(=O)C(C(C)(C)O)NC(=O)C(=C)NC(=O)c1nc(oc1C)/C(=C/C)NC(=O)C(C(C)O)NC(=O)c1csc-2n1)C(N)=O (stereo not drawn) [BER, berninamycin] | also induced autophagy |  |  |  |  | 
2 | C=C(NC(=O)C(=C)NC(=O)c1csc(-c2ccc3c(n2)-c2csc(n2)-c2csc(n2)C2C(C)CC(O)N2C(=O)C(Cc2ccc(O)cc2)N=C(O)C2CSC(=N2)C(Cc2ccccc2)N=C(O)c2csc(n2)C(CC(N)=O)N=C(O)c2nc-3oc2C)n1)C(=O)O (stereo not drawn) [GE, GE37468] | induced autophagy at concentrations comparable to TSR |  |  |  |  | 
3 | CC(C)C[C@@H](C=O)NC(=O)[C@H](CC(C)C)NC(=O)[C@H](CC(C)C)NC(=O)OCc1ccccc1 [MG-132] (Cbz-Leu-Leu-Leu-aldehyde) |  | significant decrease in FoxM1 protein levels |  |  |  | PINK1 expression level (PINK1): little to no increase over basal levels; Parkin expression level (Parkin): little to no increase over basal levels
4 | C=C(NC(=O)c1csc(-c2nc3c(cc2O)-c2nc(cs2)C(=O)NC(C(C)O)C(=O)N/C(=C\C)c2nc(cs2)C(=O)NC2CC(O)C(=O)OCc4cccc5[nH]c(c(C)c45)C(=O)SCC(NC(=O)c4csc2n4)c2nc-3cs2)n1)C(N)=O (stereo not drawn) [NOS, nosiheptide] | induced autophagy at concentrations comparable to TSR | no effect on FoxM1 levels | potent inhibitory effects on intracellular Mtb growth | no significant effect on their anti-Mtb activity in macrophages | significantly increased the number of RFP-LC3 puncta per cell | activity against Mtb in vitro (REMA, in words) (Mtb H37Rv; Mtb H37Rv in culture, 4 days): active against Mtb in vitro at IC50s comparable to kanamycin; EC50 (proteasomes): 380 nM; direct inhibition of reconstituted 20S proteasome (20S proteasome): directly inhibited the proteasome; IC50 caspase-like activity (20S proteasome): low micromolar; IC50 chymotrypsin-like activity (20S proteasome): low micromolar; IC50 trypsin-like activity (20S proteasome): low micromolar
5 | C=C(NC(=O)C(=C)NC(=O)c1csc(C2=N[C@@H]3c4csc(n4)[C@H]4NC(=O)c5csc(n5)[C@H]([C@](C)(O)[C@@H](C)O)NC(=O)[C@H]5CSC(=N5)/C(=C/C)NC(=O)[C@H]([C@@H](C)O)NC(=O)c5csc(n5)[C@]3(CC2)NC(=O)[C@H](C)NC(=O)C(=C)NC(=O)[C@H](C)NC(=O)[C@H]([C@@H](C)CC)N[C@@H]2C=Cc3c([C@H](C)O)cc(nc3[C@H]2O)C(=O)O[C@@H]4C)n1)C(N)=O [TSR, thiostrepton] | potently induced autophagy | significant decrease in FoxM1 protein levels | potent inhibitory effects on intracellular Mtb growth | no significant effect on their anti-Mtb activity in macrophages | significantly increased the number of RFP-LC3 puncta per cell | activity against Mtb in vitro (REMA, in words) (Mtb H37Rv): active against Mtb in vitro at IC50s comparable to kanamycin; EC50 (proteasomes): 1450 nM; direct inhibition of reconstituted 20S proteasome (20S proteasome): directly inhibited the proteasome; IC50 caspase-like activity (20S proteasome): substantially less active; IC50 chymotrypsin-like activity (20S proteasome): sub-micromolar; IC50 trypsin-like activity (20S proteasome): sub-micromolar
6 | COC[C@H]1OC(=O)c2coc3c2[C@@]1(C)C1=C(C3=O)[C@@H]2CCC(=O)[C@@]2(C)C[C@H]1OC(C)=O [WRT, wortmannin, reference compound] |  |  |  |  | < 5 | effect on thiopeptide-induced autophagy (THP-1 cells): abrogates thiopeptide-induced autophagy
7 | thiocillin III [TCIII] | also induced autophagy |  | potent inhibitory effects on intracellular Mtb growth | no significant effect on their anti-Mtb activity in macrophages | significantly increased the number of RFP-LC3 puncta per cell | activity against Mtb in vitro (REMA, in words) (Mtb H37Rv; Mtb H37Rv in culture, 4 days): active against Mtb in vitro at IC50s comparable to kanamycin; EC50 (RAW-Difluo mLC3 cells; read-out: EC50 induction of autophagy (RFP-LC3 puncta per cell)): 90 nM; EIF-2α phosphorylation (EIF-2α): led to EIF-2α phosphorylation
